Results taken from patent publication US20030170643A1, “Regulation of apoB treatment and drug screening for cardiovascular and metabolic disorders or syndromes” (priority 1999, published 2003).

Assays:
Format in all cases: cell-based
[1] = tested on: McArdle RH-7777 cells; assay: Secretion of labeled apoB and apoE by McArdle RH-7777 cells after MTP inhibition; conditions: rat hepatoma cells, 4 hr, MTP inhibitor
Protocol: FIG. 7 illustrates that inhibition of MTP reduces the secretion of newly synthesized apoB100 without affecting apoE. Rat McA hepatoma cells were incubated at 37 °C for 4 hr with [ ^35S]methionine in the absence (Control) or presence (MTPI) of an inhibitor of MTP activity. Equal aliquots of the conditioned media samples from duplicate wells were subjected to separate immunoprecipitations with anti-apoB or anti-apoE antiserum. For each well, the resulting pellets from the two immunoprecipitations were combined and analyzed by SDS-PAGE and fluorography.
To determine the differential effects of MTP inhibition on the secretion of labeled apoB and apoE, in some experiments, McArdle RH-7777 cells were pre-treated for 30 min with MTP inhibitor BMS-200150 ([…] dissolved in DMSO; (Jamil, H., Gordon, D. A., Eustice, D. C., Brooks, C. M., Dickson, J. K., Jr., Chen, Y., Ricci, B., Chu, C.-H., Harrity, T. W., Ciosek, C. P., Jr., Biller, S. A., Gregg, R. E., and Wetterau, J. R. (1996) Proc Natl Acad Sci USA 93, 11991-11995)) or DMSO alone (final concentration 0.5%) before adding radiolabel. The cells were further incubated for 4 hr and the conditioned media contents of apoB and apoE determined by immunoprecipitation and SDS-PAGE analysis as described above.

[2] = tested on: rat hepatoma cells; assay: TBARS assay of ROS in cell lysates of rat hepatoma cells; conditions: co-treatment with DHA, FIG. 13C
Protocol: FIG. 13 illustrates that either an iron chelator (DFX) or lipid antioxidants block DHA-stimulated apoB degradation and reactive oxygen species (ROS) production. Rat hepatoma cells were plated in culture wells and pre-incubated in media containing either DHA or DHA with one of the indicated compounds. Radiolabeled methionine/cysteine was added to the culture media for 15 minutes, after which time, the culture media were replaced by fresh media identical in composition except that radiolabeled methionine/cysteine were replaced by unlabeled methionone/cysteine. The recovery of labeled apoB100 ([^35S]-apoB100) from the media and cell lysate was determined at the indicated time points (with time 0 being the point when the fresh media were applied to the cells) by immunoprecipitating apoB species with a rabbit polyclonal antibody to rat apoB, resuspending the immunoprecipitates, combining aliquots from cell lysate and media samples from each well, resolving the protein contents of the combined immunoprecipitates by SDS-polyacrylamide gel electrophoresis (SDS-PAGE), and exposing the resultant gels to X-ray film in order to visualize the labeled apoB bands. In panel A are shown representative signals for radiolabeled apoB100 in each of the treatment conditions. […] For each treatment, there were at least 2 wells/treatment for each time point and the entire experiment repeated. The signal intensities of the apoB100 bands were quantified by densitometry and the mean relative recoveries (the % of the 15 minute, or initial, value still remaining at 120 minutes) ±SEM are shown in panel B. Note that the visual impressions observable in panel A are confirmed by the quantitative analysis; i.e., there is a substantial increase in labeled apoB100 recovery with any of the co-treatments. In panel C, the ROS content of the cell lysates at the end of the experiment was measured by the standard TBARS assay (Stocks et al., 1974, Clin Sci Mol Med 47,215-222). Note that compared to control (BSA), DHA induced a large increase in TBARS, as expected because of its high content on unsaturated bonds. […] FIG. 15 illustrates that AA stimulates apoB100 degradation and increases ROS. […] Note in the upper panel that the combined recovery (from two separate wells/time point) of radiolabeled apoB100 decreased from 15 to 120 minutes, indicating significant apoB100 degradation had occurred in the presence of AA. […] In addition to being a source of ROS, AA can also be converted by cyclooxygenase (COX) to bioactive prostaglandin compounds. We therefore repeated the experiment with AA but with co-treatment by the COX inhibitor aspirin.

[3] = tested on: rat primary hepatocytes; assay: TBARS assay of ROS in rat primary hepatocytes; conditions: FIG. 16B
[4] = tested on: rat hepatoma cells; assay: Pulse-chase recovery of [35S]-apoB100 (apoB100 degradation) in rat hepatoma cells; conditions: co-treatment with DHA, FIG. 13A and 13B
Protocol: FIG. 13 illustrates that either an iron chelator (DFX) or lipid antioxidants block DHA-stimulated apoB degradation and reactive oxygen species (ROS) production. Rat hepatoma cells were plated in culture wells and pre-incubated in media containing either DHA or DHA with one of the indicated compounds. Radiolabeled methionine/cysteine was added to the culture media for 15 minutes, after which time, the culture media were replaced by fresh media identical in composition except that radiolabeled methionine/cysteine were replaced by unlabeled methionone/cysteine. The recovery of labeled apoB100 ([^35S]-apoB100) from the media and cell lysate was determined at the indicated time points (with time 0 being the point when the fresh media were applied to the cells) by immunoprecipitating apoB species with a rabbit polyclonal antibody to rat apoB, resuspending the immunoprecipitates, combining aliquots from cell lysate and media samples from each well, resolving the protein contents of the combined immunoprecipitates by SDS-polyacrylamide gel electrophoresis (SDS-PAGE), and exposing the resultant gels to X-ray film in order to visualize the labeled apoB bands. In panel A are shown representative signals for radiolabeled apoB100 in each of the treatment conditions. […] For each treatment, there were at least 2 wells/treatment for each time point and the entire experiment repeated. The signal intensities of the apoB100 bands were quantified by densitometry and the mean relative recoveries (the % of the 15 minute, or initial, value still remaining at 120 minutes) ±SEM are shown in panel B. Note that the visual impressions observable in panel A are confirmed by the quantitative analysis; i.e., there is a substantial increase in labeled apoB100 recovery with any of the co-treatments. In panel C, the ROS content of the cell lysates at the end of the experiment was measured by the standard TBARS assay (Stocks et al., 1974, Clin Sci Mol Med 47,215-222). Note that compared to control (BSA), DHA induced a large increase in TBARS, as expected because of its high content on unsaturated bonds.
FIG. 14 illustrates that DHA, but not saturated MA, induces apoB100 degradation in rat hepatoma cells. An experiment similar to the one described in FIG. 13 was performed, with the following changes: A) The immunoprecipitates from cell lysate and media samples were not combined, but separately analyzed. B) In addition to the 15 and 120 minute time points, apoB recovery was determined at 30 minutes. C) In addition to DHA, the effects of the fatty acid myristic (MA) were also tested because it has no unsaturated bonds and should not give rise to ROS.
FIG. 15 illustrates that AA stimulates apoB100 degradation and increases ROS. […] Note in the upper panel that the combined recovery (from two separate wells/time point) of radiolabeled apoB100 decreased from 15 to 120 minutes, indicating significant apoB100 degradation had occurred in the presence of AA. […] In addition to being a source of ROS, AA can also be converted by cyclooxygenase (COX) to bioactive prostaglandin compounds. We therefore repeated the experiment with AA but with co-treatment by the COX inhibitor aspirin.
To further explore the underlying mechanisms, rat hepatoma cells or primary hepatocytes were incubated with the Ω-3 fatty acid DHA complexed to BSA, while blocking candidate cellular mediators. […] There was, however, strong evidence against a role for calcium. Chelation of intracellular Ca^++ with BAPTA-AM, pharmacologic blockage of Ca^++ channels, depletion of the ER-calcium pool, and increasing Ca++ influx with an ionophore each had no effect. Because EGTA also chelates Fe^+++, and DHA is subject to Fe^+++-dependent peroxidation, the role of this lipid modification was examined. As shown in FIG. 13A and 13B, Desferroxamine (DFX), a chelator of Fe^+++, the antioxidant vitamin E (Vit E), and the synthetic antioxidant BHT, each inhibited DHA-stimulated apoB100 degradation by ˜60%.

[5] = tested on: rat primary hepatocytes; assay: Basal apoB100 degradation (pulse-chase recovery) in rat primary hepatocytes; conditions: FIG. 16A
[6] = tested on: rat primary hepatocytes; assay: Secretion of newly synthesized ([35S]methionine-labeled) VLDL-apoproteins by rat primary hepatocytes incubated with fatty acid/BSA complexes; conditions: fatty acid/BSA complexes (0.8 mM FA), VLDL fraction
Protocol: Cells were plated at a density of 2×10^6 cells/ml on 60-mm culture dishes (previously coated with poly-D-lysine) in modified M199 medium (M199, 1% fetal bovine serum [FBS], 1 mM nicotinamide, 0.1 nM insulin, 3 mg/ml choline, 1.1% L-glutamine, 1% BSA). After a four-hour attachment period, the medium was changed (modified M199 identical to the above except BSA was omitted and the concentration of FBS was raised to 10%). The next morning, cells were washed in serum-free medium three times, the experimental media added, and the cells incubated at 37° C. for 4-6 hours. The experimental medium consisted of serum-free RPMI containing the appropriate isotopes (see below) and fatty acids (FA) present at a final concentration of 0.8 mM complexed to BSA (FA:BSA molar ratio=5:1). The fatty acids used were oleic (OA), EPA, and DHA. Control medium was identical, except that BSA (0.16 mM) without fatty acids was present. For metabolic labeling of proteins, [^35S]methionine (70 uCi/ml) was included in the experimental media.
Following the 4-6 hour incubation period, the cell monolayer was washed, then solubilized in 0.1 M NaOH, and the cell protein determined by the Lowry method (Lowry, O. H., Rosebrough, N. J., Farr, A. L., and Randall, R. J. (1951) J Biol Chem 193, 265-75). Each 60 mm dish contained approximately 1-1.5 mg of cell protein. The secreted apoproteins were isolated from the medium either by ultracentrifugation or immunoprecipitation. To isolate the d<1.006 (VLDL) and 1.006<d<1.063 (IDL and LDL) g/ml density classes by centrifugation, sequential 20 hour runs at 48,000 rpm in a 50 Ti Beckman rotor at 4° C. were performed. After the first run at d=1.006, the upper VLDL layer was harvested and the density of the infranatant adjusted to 1.066 g/ml with solid KBr. After being overlaid with a KBr solution of density 1.063, the adjusted infranatant was re-centrifuged as before to isolate the IDL and LDL fractions. In some experiments, the HDL fraction (1.063<d<1.21) was isolated by sequential density centrifugation. Lipoprotein fractions were then dialyzed against 0.9% NaCl containing 10 mM unlabeled methionine, 0.2 mM PMSF, and 2 mM EDTA. Dialyzed lipoproteins were delipidated using 9 volumes of 100% isopropanol. Apoproteins were then collected by centrifugation in a Sorval HB-4 rotor at 10,000 rpm and 4° C. for 20 min, and dissolved in buffer (0.01 M phosphate, pH 7,1 % SDS, 10% glycerol), in preparation for electrophoresis.
To immunoprecipitate apoB or apoE from unfractionated conditioned medium, monospecific rabbit antiserum to rat apoB or apoE was used. Briefly, an aliquot of the medium was mixed with an equal volume of diluted antiserum (1:100 in PBS and 1% BSA) and incubated overnight at 4° C. Staph A was added in the form of immunoprecipitin, and the resultant precipitate containing the immune complexes was washed extensively, the staph A cells removed, and the isolated apoprotein dissolved in gel sample buffer (0.0625M tris/Cl, pH 6.8, 20% glycerol, 2% SDS). Electrophoretic separation of apoVLDL, apoIDL/LDL, and immunoprecipitates was accomplished using 3.5% acrylamide-18% glycerol gels as described (Maguire, G. F., Lee, M., and Connelly, P. W. (1989) J Lipid Res 30, 757-61). An aliquot of each sample was taken for scintillation counting, so that total radioactivity applied to each lane could be determined. Also, protein size standards were included in each gel.
After electrophoresis, the gels were stained, fixed, soaked in Enhance fluor solution, and dried following protocols supplied by the manufacturer. Dried gels were then exposed to X-ray film at −70° C. and signals on the resulting fluorograms were typically quantified by densitometry or phosphorimaging. Using the total radioactivity applied to each lane of the gel and the relative signal intensity of each band in that lane, the radioactivity associated with each apoprotein species was calculated. […]

[7] = tested on: rat primary hepatocytes; assay: Nascent VLDL re-uptake: VLDL-apoprotein secretion with or without heparin
Protocol: FIG. 9 illustrates that DHA inhibits the secretion of newly synthesized VLDL-apoproteins even when re-uptake is blocked. Rat primary hepatocytes were treated as in FIG. 1, except that media in the indicated wells also was supplemented with heparin (10 mg/ml). Total labeled VLDL-apoproteins were determined as in FIG. 3. The results for the fatty acids are expressed relative to the corresponding result for BSA and are shown as mean ±SE (n=6).
To evaluate whether there were differential effects of fish oil fatty acids and OA on the re-uptake of newly synthesized VLDL, an experimental design identical to that described above was employed, except heparin (0.1 mg/ml or 10 mg/ml) was added to the treatment media to block LDL receptor-dependent and proteoglycan-mediated re-uptake (Williams, K. J., Fless, G. M., Petrie, K. A., Snyder, M. L., Brocia, R. W., and Swenson, T. L. (1992) J Biol Chem 267(19), 13284-92). Control experiments were performed showing that the flotation properties of VLDL were unchanged in the presence of heparin.
The concentration of heparin was 10 mg/ml, which blocks lipoprotein binding to both LDL receptors and HSPGs (Williams, K. J. et al. (1992) J Biol Chem 267(19), 13284-92, and citations therein). […] Thus, there is substantial re-uptake of nascent VLDL by primary hepatocytes in the presence of either fatty acid. […] Thus, re-uptake of newly exported apoB cannot explain the effect of Ω-3 fatty acids on lipoprotein secretion.

O=C1c2ccccc2CN1C1CCN(CCC(c2ccccc2)c2ccccc2)CC1 [BMS compound #200150]
secretion of newly synthesized apoB100 [1]: almost completely abolished | secretion of newly synthesized apoE [1]: no significant effect

CC(=O)N(O)CCCCCNC(=O)CCC(=O)N(O)CCCCCNC(=O)CCC(=O)N(O)CCCCCN [DFX, desferrioxamine]
DHA-increased ROS, TBARS assay, with co-treatment [2]: reduced | ROS level (TBARS) [3]: reduced | inhibition of DHA-stimulated apoB100 degradation [4]: ~60% | basal level of apoB degradation [5]: essentially reversed

CC/C=C\C/C=C\C/C=C\C/C=C\C/C=C\C/C=C\CCC(=O)O [DHA, docosahexaenoic acid]
secretion of newly synthesized VLDL-ApoB48, percentage of secretion observed with BSA alone [6]: 39 ± 3 percentage | secretion of newly synthesized VLDL-ApoB100, percentage of secretion observed with BSA alone [6]: 24 ± 3 percentage | secretion of newly synthesized VLDL-ApoE, percentage of secretion observed with BSA alone [6]: 53 ± 2 percentage | secretion of VLDL apoproteins, % of the OA control ([7]; independent of heparin treatment (10 mg/ml)): approximately 50%

heparin
apoB output in the presence of either fatty acid ([7]; heparin 0.1 mg/ml): failed to increase | net secretion of newly synthesized VLDL-apoproteins during treatment with either OA or DHA ([7]; heparin 10 mg/ml, P<0.01): approximately two-fold
